Columns and labels:
Test in all cases: cells
CaR-1 = type: functional, cell-based, Homo sapiens; details: Homo sapiens, CaR-1;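 note: growth inhibition of human CaR-1 cancer cells, read out with a cell viability assay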
Description: SANGER: Inhibition of human CaR-1 cell growth in a cell viability assay.

G-401 = type: functional, cell-based, Homo sapiens; details: Homo sapiens, G-401
Description: SANGER: Inhibition of human G-401 cell growth in a cell viability assay.

GMS-10 = type: functional, cell-based, Homo sapiens; details: Homo sapiens, GMS-10;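 note: growth inhibition of GMS-10 cells, read out as cell viability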
Description: SANGER: Inhibition of human GMS-10 cell growth in a cell viability assay.

HCC1937 = type: functional, cell-based, Homo sapiens; details: Homo sapiens, HCC1937;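 note: growth inhibition measured with a cell viability read-out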
Description: SANGER: Inhibition of human HCC1937 cell growth in a cell viability assay.

HT1197 = type: functional, cell-based, Homo sapiens, HT-1197; details: Homo sapiens, HT1197
Description: SANGER: Inhibition of human HT-1197 cell growth in a cell viability assay.

HTC-C3 = type: functional, cell-based, Homo sapiens; details: Homo sapiens, HTC-C3;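 note: inhibition of cell growth, read out with a cell viability assay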
Description: SANGER: Inhibition of human HTC-C3 cell growth in a cell viability assay.

KU-19-19 = type: functional, cell-based, Homo sapiens; details: Homo sapiens, KU-19-19
Description: SANGER: Inhibition of human KU-19-19 cell growth in a cell viability assay.

KYSE-410 = type: functional, cell-based, Homo sapiens; details: Homo sapiens, KYSE-410;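 note: growth inhibition of KYSE-410 cells, measured through a cell viability readout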
Description: SANGER: Inhibition of human KYSE-410 cell growth in a cell viability assay.

MC-IXC = type: functional, cell-based, Homo sapiens; details: Homo sapiens, MC-IXC;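 note: growth inhibition of MC-IXC cells, read out with a cell viability assay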
Description: SANGER: Inhibition of human MC-IXC cell growth in a cell viability assay.

MOLT-13 = type: functional, cell-based, Homo sapiens; details: Homo sapiens, MOLT-13;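 note: IC50 for suppression of MOLT-13 cell growth, read out with a cell viability assay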
Description: SANGER: Inhibition of human MOLT-13 cell growth in a cell viability assay.

MeWo = type: functional, cell-based, Homo sapiens; details: Homo sapiens, MeWo;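 note: growth inhibition of MeWo cells, determined by a cell viability readout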
Description: SANGER: Inhibition of human Mewo cell growth in a cell viability assay.

NCI-H1048 = type: functional, cell-based, Homo sapiens; details: Homo sapiens, NCI-H1048;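 note: growth inhibition of human NCI-H1048 cells, read out with a cell viability assay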
Description: SANGER: Inhibition of human NCI-H1048 cell growth in a cell viability assay.

NCI-H1792 = type: functional, cell-based, Homo sapiens; details: Homo sapiens, NCI-H1792;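 note: growth inhibition of human NCI-H1792 cells, read out as cell viability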
Description: SANGER: Inhibition of human NCI-H1792 cell growth in a cell viability assay.

NCI-H441 = type: functional, cell-based, Homo sapiens; details: Homo sapiens, NCI-H441;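 note: growth inhibition of NCI-H441 cells, read out with a cell viability assay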
Description: SANGER: Inhibition of human NCI-H441 cell growth in a cell viability assay.

OAW-28 = type: functional, cell-based, Homo sapiens; details: Homo sapiens, OAW-28;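 note: growth inhibition of OAW-28 cells, read out with a cell viability assay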
Description: SANGER: Inhibition of human OAW-28 cell growth in a cell viability assay.

PANC-08-13 = type: functional, cell-based, Homo sapiens; details: Homo sapiens, PANC-08-13;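 note: cell growth inhibition, measured with a cell viability assay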
Description: SANGER: Inhibition of human PANC-08-13 cell growth in a cell viability assay.

RPMI-2650 = type: functional, cell-based, Homo sapiens; details: Homo sapiens, RPMI-2650
Description: SANGER: Inhibition of human RPMI-2650 cell growth in a cell viability assay.

SBC-5 = type: functional, cell-based, Homo sapiens; details: Homo sapiens, SBC-5;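 note: cell viability assay read-out, IC50 is the concentration that inhibits growth of the cells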
Description: SANGER: Inhibition of human SBC-5 cell growth in a cell viability assay.

SK-LU-1 = type: functional, cell-based, Homo sapiens; details: Homo sapiens, SK-LU-1;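 note: cell viability assay measuring growth inhibition of human SK-LU-1 cells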
Description: SANGER: Inhibition of human SK-LU-1 cell growth in a cell viability assay.

SK-MEL-30 = type: functional, cell-based, Homo sapiens; details: Homo sapiens, SK-MEL-30;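 note: growth inhibition of SK-MEL-30 cells, determined with a cell viability assay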
Description: SANGER: Inhibition of human SK-MEL-30 cell growth in a cell viability assay.

SW48 = type: functional, cell-based, Homo sapiens; details: Homo sapiens, SW48;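 note: growth inhibition of SW48 cells, read out with a cell viability assay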
Description: SANGER: Inhibition of human SW48 cell growth in a cell viability assay.

SW756 = type: functional, cell-based, Homo sapiens; details: Homo sapiens, SW756;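 note: growth inhibition of human SW756 cells, read out with a cell viability assay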
Description: SANGER: Inhibition of human SW756 cell growth in a cell viability assay.

T84 = type: functional, cell-based, Homo sapiens; details: Homo sapiens, T84;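 note: growth inhibition measured with a cell viability readout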
Description: SANGER: Inhibition of human T84 cell growth in a cell viability assay.

T98G = type: functional, cell-based, Homo sapiens; details: Homo sapiens, T98G;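 note: growth inhibition of T98G cells, read out by a cell viability assay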
Description: SANGER: Inhibition of human T98G cell growth in a cell viability assay.

647-V = type: functional, cell-based, Homo sapiens; details: Homo sapiens, 647-V;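 note: growth inhibition of 647-V cells, read out with a cell viability assay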
Description: SANGER: Inhibition of human 647-V cell growth in a cell viability assay.

A2780 = type: functional, cell-based, Homo sapiens; details: Homo sapiens, A2780;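 note: growth inhibition of A2780 cells, read out with a cell viability assay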
Description: SANGER: Inhibition of human A2780 cell growth in a cell viability assay.

ASPC1 = type: functional, cell-based, Homo sapiens; details: Homo sapiens, ASPC1;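 note: growth inhibition of AsPC-1 cells, read out with a cell viability assay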
Description: SANGER: Inhibition of human AsPC-1 cell growth in a cell viability assay.

BPH-1 = type: functional, cell-based, Homo sapiens; details: Homo sapiens, BPH-1;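 note: cell viability assay measuring growth inhibition of human BPH-1 cells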
Description: SANGER: Inhibition of human BPH-1 cell growth in a cell viability assay.

CAL-120 = type: functional, cell-based, Homo sapiens; details: Homo sapiens, CAL-120;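 note: cell growth inhibition, read out as cell viability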
Description: SANGER: Inhibition of human CAL-120 cell growth in a cell viability assay.

UACC-62 = type: functional, cell-based, Homo sapiens; details: Homo sapiens, UACC-62;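 note: growth inhibition of human UACC-62 cells, read out by a cell viability assay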
Description: SANGER: Inhibition of human UACC-62 cell growth in a cell viability assay.

VM-CUB-1 = type: functional, cell-based, Homo sapiens; details: Homo sapiens, VM-CUB-1;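 note: cell viability assay measuring growth inhibition of the human VM-CUB-1 cell line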
Description: SANGER: Inhibition of human VM-CUB-1 cell growth in a cell viability assay.

YH-13 = type: functional, cell-based, Homo sapiens; details: Homo sapiens, YH-13;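 note: cell viability readout of growth suppression in the human YH-13 cell line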
Description: SANGER: Inhibition of human YH-13 cell growth in a cell viability assay.

ZR-75-30 = type: functional, cell-based, Homo sapiens; details: Homo sapiens, ZR-75-30;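 note: growth inhibition of ZR-75-30 cells, measured with a cell viability readout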
Description: SANGER: Inhibition of human ZR-75-30 cell growth in a cell viability assay.

CHP-212 = type: functional, cell-based, Homo sapiens; details: Homo sapiens, CHP-212
Description: SANGER: Inhibition of human CHP-212 cell growth in a cell viability assay.

D-336MG = type: functional, cell-based, Homo sapiens; details: Homo sapiens, D-336MG
Description: SANGER: Inhibition of human D-336MG cell growth in a cell viability assay.

MKN-1 = type: functional, cell-based, Homo sapiens; details: Homo sapiens, MKN-1;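 note: growth inhibition of human MKN1 cells, read out by a cell viability measurement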
Description: SANGER: Inhibition of human MKN1 cell growth in a cell viability assay.

UO-31 = type: functional, cell-based, Homo sapiens; details: Homo sapiens, UO-31;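 note: cell viability assay measuring inhibition of cell growth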
Description: SANGER: Inhibition of human U031 cell growth in a cell viability assay.

UMUC3 = type: functional, cell-based, Homo sapiens; details: Homo sapiens, UMUC3;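 note: growth inhibition of human UM-UC-3 cells, read out with a cell viability assay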
Description: SANGER: Inhibition of human UM-UC-3 cell growth in a cell viability assay.

SMILES | IC50 (CaR-1) | IC50 (G-401) | IC50 (GMS-10) | IC50 (HCC1937) | IC50 (HT1197) | IC50 (HTC-C3) | IC50 (KU-19-19) | IC50 (KYSE-410) | IC50 (MC-IXC) | IC50 (MOLT-13) | IC50 (MeWo) | IC50 (NCI-H1048) | IC50 (NCI-H1792) | IC50 (NCI-H441) | IC50 (OAW-28) | IC50 (PANC-08-13) | IC50 (RPMI-2650) | IC50 (SBC-5) | IC50 (SK-LU-1) | IC50 (SK-MEL-30) | also measured
Cn1cnc2c(F)c(Nc3ccc(Br)cc3Cl)c(C(=O)NOCCO)cc21 [SELUMETINIB] | > 4 µM | > 4 µM | > 4 µM | > 4 µM | > 4 µM | 0.215 µM | 3.42 µM | > 4 µM | > 4 µM | > 4 µM | 0.521 µM | > 4 µM | > 4 µM | > 4 µM | 1.74 µM | > 4 µM | > 4 µM | > 4 µM | 3.86 µM | 0.782 µM | IC50 (SW48): > 4 µM; IC50 (SW756): > 4 µM; IC50 (T84): > 4 µM; IC50 (T98G): > 4 µM; IC50 (647-V): > 4 µM; IC50 (A2780): > 4 µM; IC50 (ASPC1): 0.324 µM; IC50 (BPH-1): 0.182 µM; IC50 (CAL-120): > 4 µM; IC50 (UACC-62): > 4 µM; IC50 (VM-CUB-1): 3.97 µM; IC50 (YH-13): > 4 µM; IC50 (ZR-75-30): > 4 µM; IC50 (CHP-212): < 0.0156 µM
CCN(CC)CCCCNc1ncc2cc(-c3cc(OC)cc(OC)c3)c(NC(=O)NC(C)(C)C)nc2n1 [PD-173074] | > 2 µM | > 2 µM | > 2 µM | > 2 µM | > 2 µM | > 2 µM | > 2 µM | > 2 µM | > 2 µM | > 2 µM | > 2 µM | > 2 µM | > 2 µM | > 2 µM | > 2 µM | > 2 µM | > 2 µM | > 2 µM | > 2 µM | > 2 µM | IC50 (D-336MG): > 2 µM; IC50 (MKN-1): > 2 µM; IC50 (SW48): > 2 µM; IC50 (SW756): > 2 µM; IC50 (T84): > 2 µM; IC50 (T98G): > 2 µM; IC50 (647-V): > 2 µM; IC50 (A2780): > 2 µM; IC50 (ASPC1): > 2 µM; IC50 (BPH-1): > 2 µM; IC50 (CAL-120): > 2 µM; IC50 (UO-31): > 2 µM; IC50 (UACC-62): > 2 µM; IC50 (UMUC3): > 2 µM; IC50 (VM-CUB-1): > 2 µM; IC50 (YH-13): > 2 µM; IC50 (ZR-75-30): > 2 µM; IC50 (CHP-212): > 2 µM
COc1cc2c(Nc3ccc(NC(=O)c4ccccc4)cc3)ncnc2cc1OCCCN1CCOCC1 | > 4 µM | > 4 µM | > 4 µM | > 4 µM | > 4 µM | > 4 µM | > 4 µM | > 4 µM | > 4 µM | 1.57 µM | > 4 µM | 1.8 µM | > 4 µM | > 4 µM | > 4 µM | > 4 µM | > 4 µM | > 4 µM | > 4 µM | > 4 µM | IC50 (D-336MG): > 4 µM; IC50 (MKN-1): > 4 µM; IC50 (SW48): 1.23 µM; IC50 (SW756): > 4 µM; IC50 (T84): > 4 µM; IC50 (T98G): 3.95 µM; IC50 (647-V): > 4 µM; IC50 (A2780): > 4 µM; IC50 (ASPC1): > 4 µM; IC50 (BPH-1): > 4 µM; IC50 (CAL-120): > 4 µM; IC50 (UO-31): > 4 µM; IC50 (UACC-62): > 4 µM; IC50 (UMUC3): > 4 µM; IC50 (VM-CUB-1): 2.63 µM; IC50 (YH-13): > 4 µM; IC50 (ZR-75-30): > 4 µM; IC50 (CHP-212): 1.47 µM

From ChEMBL document CHEMBL1201861, “Genomics of Drug Sensitity in Cancer screening data, Wellcome Trust Sanger Institute”
